Experiment: xn = mol fraction of the nth substance listed
Conditions: Liquid, Vibrating tube method

CCCCn1cc[n+](C)c1.F[B-](F)(F)F [1-butyl-3-methylimidazolium tetrafluoroborate] + CO
mass density [kg/m3]
Conditions | 373.15 K | 398.15 K
870 kPa, x1 = 0.0087 | – | 702.45
980 kPa, x1 = 0.7501 | – | 1114.32
990 kPa, x1 = 0.4988 | – | 1069.4
1020 kPa, x1 = 0.2626 | – | 985.77
1030 kPa, x1 = 0.9102 | – | 1132.67
1250 kPa, x1 = 0.0433 | – | 772.27
2310 kPa, x1 = 0.1302 | – | 891.44
5010 kPa, x1 = 0.0087 | – | 709.59
5060 kPa, x1 = 0.0433 | – | 778.08
5060 kPa, x1 = 0.2626 | – | 989.1
5080 kPa, x1 = 0.4988 | – | 1072.6
5120 kPa, x1 = 0.1302 | – | 894.51
5310 kPa, x1 = 0.7501 | – | 1117.54
5410 kPa, x1 = 0.9102 | – | 1135.7
10030 kPa, x1 = 0.0087 | – | 717.77
10030 kPa, x1 = 0.1302 | – | 899.7
10120 kPa, x1 = 0.2626 | – | 994.1
10250 kPa, x1 = 0.9102 | – | 1138.98
10410 kPa, x1 = 0.0433 | – | 785.75
10410 kPa, x1 = 0.7501 | – | 1121.25
10470 kPa, x1 = 0.4988 | – | 1077.23
14950 kPa, x1 = 0.0087 | – | 725.27
15020 kPa, x1 = 0.1302 | – | 904.75
15070 kPa, x1 = 0.0433 | – | 791.97
15210 kPa, x1 = 0.4988 | – | 1081.15
15360 kPa, x1 = 0.9102 | – | 1142.35
15450 kPa, x1 = 0.2626 | – | 999.14
15960 kPa, x1 = 0.7501 | – | 1125.17
20030 kPa, x1 = 0.4988 | – | 1085
20060 kPa, x1 = 0.0087 | – | 732.52
20060 kPa, x1 = 0.2626 | – | 1003.34
20100 kPa, x1 = 0.1302 | – | 909.67
20310 kPa, x1 = 0.0433 | – | 798.45
20340 kPa, x1 = 0.7501 | – | 1128.18
20470 kPa, x1 = 0.9102 | – | 1145.63
24980 kPa, x1 = 0.0087 | – | 738.99
25010 kPa, x1 = 0.9102 | – | 1148.46
25060 kPa, x1 = 0.1302 | – | 914.25
25080 kPa, x1 = 0.0433 | – | 803.88
25320 kPa, x1 = 0.4988 | – | 1089.05
25620 kPa, x1 = 0.2626 | – | 1008.18
25720 kPa, x1 = 0.7501 | – | 1131.78
29970 kPa, x1 = 0.1302 | – | 918.57
30080 kPa, x1 = 0.7501 | – | 1134.62
30090 kPa, x1 = 0.4988 | – | 1092.57
30120 kPa, x1 = 0.0087 | – | 745.21
30200 kPa, x1 = 0.0433 | – | 809.19
30550 kPa, x1 = 0.0433 | 830.7 | –
30740 kPa, x1 = 0.2626 | – | 1012.44
30780 kPa, x1 = 0.0087 | 768.4 | –
30890 kPa, x1 = 0.9102 | – | 1152.03
34960 kPa, x1 = 0.0433 | – | 813.67
34970 kPa, x1 = 0.0433 | 834.46 | –
35040 kPa, x1 = 0.4988 | – | 1096.06
35040 kPa, x1 = 0.9102 | 1169.67 | –
35060 kPa, x1 = 0.1302 | – | 922.81
35210 kPa, x1 = 0.7501 | 1153.29 | 1137.87
35280 kPa, x1 = 0.9102 | – | 1154.61
35310 kPa, x1 = 0.0087 | – | 750.93
35560 kPa, x1 = 0.1302 | 941.4 | –
35620 kPa, x1 = 0.2626 | 1033.9 | 1016.31
35640 kPa, x1 = 0.4988 | 1112.39 | –
35780 kPa, x1 = 0.0087 | 773.25 | –
39510 kPa, x1 = 0.0087 | 776.62 | –
39740 kPa, x1 = 0.1302 | – | 926.51
39910 kPa, x1 = 0.0433 | 838.34 | –
39920 kPa, x1 = 0.9102 | – | 1157.27
39940 kPa, x1 = 0.0433 | – | 817.88
39940 kPa, x1 = 0.2626 | 1036.83 | –
39940 kPa, x1 = 0.7501 | – | 1140.77
39940 kPa, x1 = 0.9102 | 1172.26 | –
39960 kPa, x1 = 0.4988 | – | 1099.38
39970 kPa, x1 = 0.0087 | – | 755.59
39970 kPa, x1 = 0.4988 | 1115.12 | –
39980 kPa, x1 = 0.2626 | – | 1019.62
39980 kPa, x1 = 0.7501 | 1155.94 | –
40050 kPa, x1 = 0.1302 | 944.67 | –

From the NIST ThermoML archive (doi:10.1016/j.jct.2008.05.005)
